Molecules are shown by their SMILES. Where a SMILES comes first, the peptide text is derived from it. [ ]: non-standard residue; d: D form. The star is where a group is joined. 1Nal = N[C@@H](Cc1cccc2ccccc12)C(=O)O; Nle = CCCC[C@H](N)C(=O)O; NHIsopentyl = CC(C)CCN*

Eight molecules from patent US8580918B2, “Peptidic GLP-2 agonists” (Ferring B.V., priority 2009, dated 2013) can be followed below.

The first data set in a line: Pharmacokinetics in rats after intravenous bolus injection (systemic clearance). Type of data set: in vivo. The following applies: rat, plasma, 0.2 mg FB/kg, adult male Sprague-Dawley rats, i.v. bolus, dose 0.20 mg FB/kg, read-out: CL (ml/kg/min) Average. Here is the method: Pharmacokinetic (PK) parameters of illustrative agonists of the GLP-2 receptor were determined in adult male Sprague-Dawley rats post intravenous bolus injection of compounds at doses of 0.1-1.0 mg/kg. Three or four doubly cannulated animals per compound were dosed via jugular vein, blood samples were collected at several intervals via carotid artery, and plasma samples were prepared from whole blood using K2EDTA as anticoagulant. Subsequent bioanalysis of samples included compound extraction and plasma concentration determination using standard LC/MS/MS methods. Analyte concentration was calculated from internal standard normalized peak area and calibration curves.
For calculation of PK parameters the compound concentration-time curves were analyzed with the noncompartmental data analysis software package PK Solutions 2.0™ (Summit Research Services, Montrose Colo.). The systemic clearance per kg body weight (CL) was calculated as the dose per kg body weight divided by the AUC extrapolated to infinity based on trapezoid calculation (AUC∞). Values reported are the arithmetic mean and standard deviation from the number of animals used for each compound as indicated on Table 3.
Turning to `CCCC[C@H](NC(=O)[C@H](CCC(=O)O)NC(=O)[C@H](CC(=O)O)NC(=O)[C@H](CO)NC(=O)[C@H](Cc1ccccc1)NC(=O)[C@H](CO)NC(=O)[C@@H](C)NC(=O)[C@H](CC(=O)O)NC(=O)CNC(=O)[C@@H](N)Cc1cnc[nH]1)C(=O)N[C@@H](CC(N)=O)C(=O)N[C@H](C(=O)N[C@H](C(=O)N[C@@H](CC(C)C)C(=O)N[C@@H](CC(=O)O)C(=O)N[C@@H](CC(N)=O)C(=O)N[C@@H](CC(C)C)C(=O)N[C@@H](C)C(=O)N[C@@H](C)C(=O)N[C@@H](CCCNC(=N)N)C(=O)N[C@@H](CC(=O)O)C(=O)N[C@@H](Cc1ccccc1)C(=O)N[C@H](C(=O)N[C@@H](CC(N)=O)C(=O)N[C@@H](Cc1c[nH]c2ccccc12)C(=O)N[C@@H](CC(C)C)C(=O)N[C@H](C(=O)N[C@@H](CCC(N)=O)C(=O)N[C@H](C(=O)N[C@@H](CCCCN)C(N)=O)[C@@H](C)O)[C@@H](C)CC)[C@@H](C)CC)[C@@H](C)CC)[C@@H](C)O` [Compound 1, [Gly2,D-Ala4,Nle10] hGLP-2 (1-30)-NH2] (H-HGD[dA]SFSDE[Nle]NTILDNLAARDFINWLIQTK-NH2), the clearance worked out at 7.1 mL/kg/min.

Consider `CCCC[C@H](NC(=O)[C@H](CCC(=O)O)NC(=O)[C@H](CC(=O)O)NC(=O)[C@H](CO)NC(=O)[C@H](Cc1ccccc1)NC(=O)[C@H](CO)NC(=O)CNC(=O)[C@H](CC(=O)O)NC(=O)CNC(=O)[C@@H](N)Cc1c[nH]cn1)C(=O)N[C@@H](CC(N)=O)C(=O)N[C@H](C(=O)N[C@H](C(=O)N[C@@H](CC(C)C)C(=O)N[C@@H](CC(=O)O)C(=O)N[C@@H](CC(N)=O)C(=O)N[C@@H](CC(C)C)C(=O)N[C@@H](C)C(=O)N[C@@H](C)C(=O)N[C@@H](CCCNC(=N)N)C(=O)N[C@@H](CC(=O)O)C(=O)N[C@@H](Cc1ccccc1)C(=O)N[C@H](C(=O)N[C@@H](CC(N)=O)C(=O)N[C@@H](Cc1c[nH]c2ccccc12)C(=O)N[C@@H](CC(C)C)C(=O)N[C@H](C(=O)N[C@@H](CCC(N)=O)C(=O)N[C@H](C(=O)N[C@@H](CCCCN)C(=O)NCCC(C)C)[C@@H](C)O)[C@@H](C)CC)[C@@H](C)CC)[C@@H](C)CC)[C@@H](C)O` [Compound 5, [Gly2,Nle10] hGLP-2 (1-30)-NH-i-Am] (H-HGDGSFSDE[Nle]NTILDNLAARDFINWLIQTK-NHIsopentyl), for which the clearance was determined as 1.2 mL/kg/min. `CCCC[C@H](NC(=O)[C@H](CCC(=O)O)NC(=O)[C@H](CC(=O)O)NC(=O)[C@H](CO)NC(=O)[C@H](Cc1ccccc1)NC(=O)[C@H](CO)NC(=O)CNC(=O)[C@H](CC(=O)O)NC(=O)CNC(=O)[C@@H](N)Cc1c[nH]cn1)C(=O)N[C@@H](CC(N)=O)C(=O)N[C@H](C(=O)N[C@H](C(=O)N[C@@H](CC(C)C)C(=O)N[C@@H](CC(=O)O)C(=O)N[C@@H](CC(N)=O)C(=O)N[C@@H](CC(C)C)C(=O)N[C@@H](C)C(=O)N[C@@H](C)C(=O)N[C@@H](CCCNC(=N)N)C(=O)N[C@@H](CC(=O)O)C(=O)N[C@@H](Cc1ccccc1)C(=O)N[C@H](C(=O)N[C@@H](CC(N)=O)C(=O)N[C@@H](Cc1c[nH]c2ccccc12)C(=O)N[C@@H](CC(C)C)C(=O)N[C@H](C(=O)N[C@@H](CCC(N)=O)C(=O)N[C@H](C(=O)N[C@@H](CCCCN)C(=O)NCC)[C@@H](C)O)[C@@H](C)CC)[C@@H](C)CC)[C@@H](C)CC)[C@@H](C)O` [Compound 6, [Gly2,Nle10] hGLP-2 (1-30)-NH—Et] (H-HGDGSFSDE[Nle]NTILDNLAARDFINWLIQTK-NHEt): the clearance is 6.3 mL/kg/min. Regarding `CCCC[C@H](NC(=O)[C@H](CCC(=O)O)NC(=O)[C@H](CC(=O)O)NC(=O)[C@H](CO)NC(=O)[C@H](Cc1ccccc1)NC(=O)[C@H](CO)NC(=O)CNC(=O)[C@H](CC(=O)O)NC(=O)CNC(=O)[C@@H](N)Cc1c[nH]cn1)C(=O)N[C@@H](CC(N)=O)C(=O)N[C@H](C(=O)N[C@H](C(=O)N[C@@H](CC(C)C)C(=O)N[C@@H](CC(=O)O)C(=O)N[C@@H](CC(C)C)C(=O)N[C@@H](CC(C)C)C(=O)N[C@@H](C)C(=O)N[C@@H](C)C(=O)N[C@@H](CCCNC(=N)N)C(=O)N[C@@H](CC(=O)O)C(=O)N[C@@H](Cc1ccccc1)C(=O)N[C@H](C(=O)N[C@@H](CC(N)=O)C(=O)N[C@@H](Cc1c[nH]c2ccccc12)C(=O)N[C@@H](CC(C)C)C(=O)N[C@H](C(=O)N[C@@H](CCC(N)=O)C(=O)N[C@H](C(=O)N[C@@H](CCCCN)C(N)=O)[C@@H](C)O)[C@@H](C)CC)[C@@H](C)CC)[C@@H](C)CC)[C@@H](C)O` [Compound 11, [Gly2,Nle10,Leu16] hGLP-2 (1-30)-NH2] (H-HGDGSFSDE[Nle]NTILDLLAARDFINWLIQTK-NH2), the clearance is 0.84 mL/kg/min. The same measure, in the same setting: the value for `CCCC[C@H](NC(=O)[C@H](CCC(=O)O)NC(=O)[C@H](CC(=O)O)NC(=O)[C@H](CO)NC(=O)[C@H](Cc1ccccc1)NC(=O)[C@H](CO)NC(=O)CNC(=O)[C@H](CC(=O)O)NC(=O)CNC(=O)[C@@H](N)Cc1cnc[nH]1)C(=O)N[C@H](Cc1ccccc1)C(=O)N[C@H](C(=O)N[C@H](C(=O)N[C@@H](CC(C)C)C(=O)N[C@@H](CC(=O)O)C(=O)N[C@@H](CC(N)=O)C(=O)N[C@@H](CC(C)C)C(=O)N[C@@H](C)C(=O)N[C@@H](C)C(=O)N[C@@H](CCCNC(=N)N)C(=O)N[C@@H](CC(=O)O)C(=O)N[C@@H](Cc1ccccc1)C(=O)N[C@H](C(=O)N[C@@H](CC(N)=O)C(=O)N[C@@H](Cc1c[nH]c2ccccc12)C(=O)N[C@@H](CC(C)C)C(=O)N[C@H](C(=O)N[C@@H](CCC(N)=O)C(=O)N[C@H](C(=O)N[C@@H](CCCCN)C(N)=O)[C@@H](C)O)[C@@H](C)CC)[C@@H](C)CC)[C@@H](C)CC)[C@@H](C)O` [Compound 13, [Gly2,Nle10,D-Phe11] hGLP-2 (1-30)-NH2] (H-HGDGSFSDE[Nle][dF]TILDNLAARDFINWLIQTK-NH2) was 1.2 mL/kg/min.

As for `CCCC[C@H](NC(=O)[C@H](CCC(=O)O)NC(=O)[C@H](CC(=O)O)NC(=O)[C@H](CO)NC(=O)[C@H](Cc1ccccc1)NC(=O)[C@H](CO)NC(=O)CNC(=O)[C@H](CC(=O)O)NC(=O)CNC(=O)[C@@H](N)Cc1cnc[nH]1)C(=O)N[C@@H](CC(N)=O)C(=O)N[C@H](C(=O)N[C@H](C(=O)N[C@@H](CC(C)C)C(=O)N[C@@H](CC(=O)O)C(=O)N[C@@H](Cc1cccc2ccccc12)C(=O)N[C@@H](CC(C)C)C(=O)N[C@@H](C)C(=O)N[C@@H](C)C(=O)N[C@@H](CCCNC(=N)N)C(=O)N[C@@H](CC(=O)O)C(=O)N[C@@H](Cc1ccccc1)C(=O)N[C@H](C(=O)N[C@@H](CC(N)=O)C(=O)N[C@@H](Cc1c[nH]c2ccccc12)C(=O)N[C@@H](CC(C)C)C(=O)N[C@H](C(=O)N[C@@H](CCC(N)=O)C(=O)N[C@H](C(=O)N[C@@H](CCCCN)C(N)=O)[C@@H](C)O)[C@@H](C)CC)[C@@H](C)CC)[C@@H](C)CC)[C@@H](C)O` [Compound 17, [Gly2,Nle10,1-Nal16] hGLP-2 (1-30)-NH2] (H-HGDGSFSDE[Nle]NTILD[1Nal]LAARDFINWLIQTK-NH2), the clearance turned out to be 0.43 mL/kg/min. Still for that read-out and setting: the value for `CCCC[C@H](NC(=O)[C@H](CCC(=O)O)NC(=O)[C@H](CC(=O)O)NC(=O)[C@H](CO)NC(=O)[C@H](Cc1ccccc1)NC(=O)[C@H](CO)NC(=O)CNC(=O)[C@H](CC(=O)O)NC(=O)CNC(=O)[C@@H](N)Cc1c[nH]cn1)C(=O)N[C@@H](CC(N)=O)C(=O)N[C@H](C(=O)N[C@H](C(=O)N[C@@H](CC(C)C)C(=O)N[C@@H](CC(=O)O)C(=O)N[C@@H](Cc1ccc(O)cc1)C(=O)N[C@@H](CC(C)C)C(=O)N[C@@H](C)C(=O)N[C@@H](C)C(=O)N[C@@H](CCCNC(=N)N)C(=O)N[C@@H](CC(=O)O)C(=O)N[C@@H](Cc1ccccc1)C(=O)N[C@H](C(=O)N[C@@H](CC(N)=O)C(=O)N[C@@H](Cc1c[nH]c2ccccc12)C(=O)N[C@@H](CC(C)C)C(=O)N[C@H](C(=O)N[C@@H](CCC(N)=O)C(=O)N[C@H](C(=O)N[C@@H](CCCCN)C(N)=O)[C@@H](C)O)[C@@H](C)CC)[C@@H](C)CC)[C@@H](C)CC)[C@@H](C)O` [Compound 18, [Gly2,Nle10,Tyr16] hGLP-2 (1-30)-NH2] (H-HGDGSFSDE[Nle]NTILDYLAARDFINWLIQTK-NH2) was 1.2 mL/kg/min.

The same data set, now with this note: rat, plasma, adult male Sprague-Dawley rats, i.v. bolus, dose 0.18 mg FB/kg, read-out: CL (ml/kg/min) Average.
With `CCCC[C@H](NC(=O)[C@H](CCC(=O)O)NC(=O)[C@H](CC(=O)O)NC(=O)[C@H](CO)NC(=O)[C@H](Cc1ccccc1)NC(=O)[C@H](CO)NC(=O)CNC(=O)[C@H](CC(=O)O)NC(=O)CNC(=O)[C@@H](N)Cc1c[nH]cn1)C(=O)N[C@@H](CC(N)=O)C(=O)N[C@H](C(=O)N[C@H](C(=O)N[C@@H](CC(C)C)C(=O)N[C@@H](CC(=O)O)C(=O)N[C@@H](CC(N)=O)C(=O)N[C@@H](CC(C)C)C(=O)N[C@@H](C)C(=O)N[C@@H](C)C(=O)N[C@@H](CCCNC(=N)N)C(=O)N[C@@H](CC(=O)O)C(=O)N[C@@H](Cc1ccccc1)C(=O)N[C@H](C(=O)N[C@@H](CC(N)=O)C(=O)N[C@@H](Cc1c[nH]c2ccccc12)C(=O)N[C@@H](CC(C)C)C(=O)N[C@H](C(=O)N[C@@H](CCCNC(=N)N)C(=O)N[C@H](C(=O)N[C@@H](CCCCN)C(=O)NCCC(C)C)[C@@H](C)O)[C@@H](C)CC)[C@@H](C)CC)[C@@H](C)CC)[C@@H](C)O` [Compound 10, [Gly2,Nle10,Arg28] hGLP-2 (1-30)-NH-i-Am] (H-HGDGSFSDE[Nle]NTILDNLAARDFINWLIRTK-NHIsopentyl), the clearance amounted to 1.5 mL/kg/min.
